Experimental findings from patent publication US5006512A, “Therapeutic usages of inhibitors for a potassium efflux channel” (priority 1988, dated 1991) are described below.

Entries after “also recorded” stand apart in the source; their conditions may differ.

One data set relates to sickle red blood cells. Put plainly: Formation of irreversibly sickled cells by sickling-unsickling cycling in vitro. It counts as cell-based. The source says:
The inventor previously developed a method to produce irreversibly sickled cells (ISC, which have irreversibly denatured membranes) by exposing sickle red blood cells to a repeated sickling-unsickling cycling in vitro. He used this system to determine the efficacy of a drug in protecting cell membranes (Ohnishi, Br. J. Haematol. 55:665-671, 1983). […] These heavy cells were collected, the amount measured, and the percentage of production calculated (Table 3). As shown in the Table, MR-103 inhibited the formation of irreversibly denatured cells at an extremely low concentration. Even at 20 nM, it inhibited the production of denatured cell almost 50%. […] The subfragment comound MR-117 was also found to have a remarkable effect (Table 4). At a concentration of 60 nM, it inhibited the formation of denatured cells by more than 50%.

The test system of a further data set is brain focal ischemia. Put plainly: Brain focal ischemia, motor performance test. The conditions noted are these: 0.14 mg/kg. It counts as in vivo, rat. The procedure: (a) Surgical procedures: Adults male Sprague-Dwaley rats weighing 250-300 g were used in these studies. Anesthesia was induced and maintained with halothane (1.0-2.5%) via closely fitted facial mask. Bilateral common carotid arteries (CCA) were exposed gently and the right CCA was ligated in two places by 4-0 silk suture. To expose the right middle cerebral artery (MCA), the temporal muscles were cut and retracted, then, a small temporal craniotomy (2=2 mm) was performed with a microdrill. Under a microscope, the dura matter was opened with a 26 guage needle, and the MCA was ligated by 10-0 suture with a square knot. Immediately, the left CCA was occluded by a microaneurysmal clip. After the operation, the animal was returned to the cage. One hour later, the left CCA clip was released under awake condition. […]
(c) Motor performance test: The disturbance of motor function was evaluated by the total score obtained from inclined plate test, balance beam test and prehensile test. These motor performance tests were dsesigned to quantify the motor weakness in the global ischemia rats. […] The animal was placed at the highest position of the plate and the time which it could stay on the plate was measured untill 30 sec. […] The time spent on the rod was recorded untill 30 sec. […] The time spent in hanging on the rope was measured untill 30 sec. […]

The test system of another data set is mice. Put plainly: Acute toxicity (LD50) in mice, i.p. The format is in vivo.
The subject of the next data set is brain ischemia. Put plainly: Brain focal ischemia, water content of hemisphere (brain edema). The format is in vivo, rat. The conditions noted are these: 0.14 mg/kg i.v. thirty minutes prior to ischemic insult; 1 hour focal ischemia. How it is done:
(a) Surgical procedures: Adults male Sprague-Dwaley rats weighing 250-300 g were used in these studies. Anesthesia was induced and maintained with halothane (1.0-2.5%) via closely fitted facial mask. Bilateral common carotid arteries (CCA) were exposed gently and the right CCA was ligated in two places by 4-0 silk suture. To expose the right middle cerebral artery (MCA), the temporal muscles were cut and retracted, then, a small temporal craniotomy (2=2 mm) was performed with a microdrill. Under a microscope, the dura matter was opened with a 26 guage needle, and the MCA was ligated by 10-0 suture with a square knot. Immediately, the left CCA was occluded by a microaneurysmal clip. After the operation, the animal was returned to the cage. One hour later, the left CCA clip was released under awake condition. The sham-operated control was produced in a similar procedure, except for the ligation and clipping of vessels. The operation was usually finished within 30 min.
(b) Water content and ionic analysis: After fixed time interval (1, 3, and 7 days), the animal was sacrificed and the excised cerebral hemispheres were placed in preweighed crucible and measured an wet weight (W.W) with a chemical balance (Mettler, AE 100). […] The water content (% wet weight) was calculated by (W.W -D.W)/W.W. […]

Take `CSCC[C@@H]1NC(=O)[C@H](CS)NC(=O)[C@H](CCCCN)NC(=O)CNC(=O)[C@H](CCCNC(=N)N)NC(=O)[C@H](CO)NC(=O)[C@H]([C@@H](C)O)NC(=O)[C@H](CC(N)=O)NC(=O)[C@H](Cc2c[nH]cn2)NC(=O)[C@H](CC(C)C)NC(=O)[C@H](CCCNC(=N)N)NC(=O)[C@H](CCC(N)=O)NC(=O)[C@@H]2CSSC[C@@H](C(=O)N[C@@H](Cc3ccc(O)cc3)C(=O)N[C@@H](CO)C(=O)O)NC(=O)[C@H](CCCNC(=N)N)NC(=O)[C@H](CSSC[C@H](N)C(=O)N[C@@H](Cc3c[nH]c4ccccc34)C(=O)N[C@@H](CO)C(=O)N[C@@H](C(C)C)C(=O)N2)NC(=O)[C@H](CCCCN)NC(=O)[C@H](CCCCN)NC(=O)[C@H](CC(N)=O)NC1=O` [MR-117]: the values for the Irreversibly sickling cells in the data set with sickle red blood cells (60 nM drug during cycling), in the data set on sickle red blood cells (100 nM drug during cycling) and in the data set on sickle red blood cells (200 nM drug during cycling) were 14.8 percentages, 10.3 percentages and 0 percentages, respectively. The Reversibly sickling cells in the data set with sickle red blood cells (60 nM drug during cycling) was determined as 85.2 percentages; in the data set with sickle red blood cells (100 nM drug during cycling) it was 89.7 percentages; in the data set with sickle red blood cells (200 nM drug during cycling), 100 percentages. Further, in the data set on brain focal ischemia (1 hour focal ischemia, 3 and 7 days), the “effect on motor performance after brain focal ischemia (in words)” value is reported as “remarkable recovery effect”. Besides, the “Motor Score” value in the data set on brain focal ischemia (3 days after ischemia, scale 0-12, no drug 6.93, sham 11.13) is 9.50 ± 0.56. Also, the “Acute toxicity (LD50)” value in the data set with mice amounted to 0.92 mg/kg. For the same compound, in the data set on brain ischemia, the “increase of water content of ischemia-exposed hemisphere” value is listed as “inhibited the increase of water content; also recorded: much reduced”.
